This passage reports inhibiting growth results from patent US20100152298A1, “Present invention relates to a treatment for the management of cancer more specially the use of Flutamide anti-androgen drugsa” (UNIVERSITY OF KUWAIT, priority 2008, published 2010).

The assay deals with androgen-independent prostate cancer PC-3 cells. The experiment in a line: Growth, proliferation and viability of PC-3 cells treated with flutamide. It is filed as cell-based. To be noted: range of doses of flutamide.

Consider `CC(C)C(=O)Nc1ccc([N+](=O)[O-])c(C(F)(F)F)c1` [flutamide, Flutamide], for which the inhibiting growth is reported as 20-70%.
